Assay results published in US9833497B2, “Human originated EGF domain proteins and use of the same” (CHENGDU SOURCEBIO LIMITED-LIABILITY COMPANY, priority 2013, dated 2017).

How the values were obtained:
Assay type in all cases: cell-based
[1] = tested on: E. coli DH5α; experiment: Antibacterial activity: MIC and growth curve against E. coli DH5α in 96-well plate; settings: minimal inhibitory concentration against E. coli DH5α; 96-well plate, 5×10^5 CFU/mL, 37° C., judged after 8 h
Summary of the method: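 Log-phase DH5α (OD600 about 0.5, 37° C, 185 rpm in LB) was pelleted, resuspended in fresh LB and seeded at 5×10^5 CFU/mL with recombinant protein at 50, 25 and 12.5 μg/mL (two-fold series), in triplicate. Plates were shaken at 175 rpm, 37° C, and OD600 was read every 30 min. MIC was the lowest concentration with no growth.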

[2] = tested on: E. coli BL21; experiment: MIC against Gram-negative bacteria: E. coli BL21
Summary of the method: (§1)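 Bacteria grown in LB at 37° C to McFarland 0.5, resuspended and seeded at 5×10^5 CFU/mL in 96-well plates. Purified human EGF-domain proteins two-fold serially diluted, triplicate wells; cultured at 37° C, shaking 175 rpm. MIC = lowest protein concentration with no growth.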

[3] = tested on: Pseudomonas aeruginosa; experiment: MIC against Gram-negative bacteria: Pseudomonas aeruginosa
Summary of the method: as §1

[4] = tested on: Klebsiella pneumonia; experiment: MIC against Gram-negative bacteria: Klebsiella pneumonia
Summary of the method: as §1

[5] = tested on: Enterobacter cloacae; experiment: MIC against Gram-negative bacteria: Enterobacter cloacae
Summary of the method: as §1

[6] = tested on: Aeromonas hydrophila; experiment: MIC against Gram-negative bacteria: Aeromonas hydrophila
Summary of the method: as §1

[7] = tested on: Citrobacter diversus; experiment: MIC against Gram-negative bacteria: Citrobacter diversus
Summary of the method: as §1

[8] = tested on: Moraxella catarrhalis; experiment: MIC against Gram-negative bacteria: Moraxella catarrhalis
Summary of the method: as §1

[9] = tested on: Proteus mirabilis; experiment: MIC against Gram-negative bacteria: Proteus mirabilis
Summary of the method: as §1

[10] = tested on: Proteus vulgaris; experiment: MIC against Gram-negative bacteria: Proteus vulgaris
Summary of the method: as §1

[11] = tested on: Serratia marcescens; experiment: MIC against Gram-negative bacteria: Serratia marcescens
Summary of the method: as §1

[12] = E. coli BL21, 5×10^5 CFU/mL, 10 h cultivation at 37° C.
[13] = Pseudomonas aeruginosa, 5×10^5 CFU/mL, 10 h cultivation at 37° C.
[14] = Klebsiella pneumonia, 5×10^5 CFU/mL, 10 h cultivation at 37° C.
[15] = Enterobacter cloacae, 5×10^5 CFU/mL, 10 h cultivation at 37° C.
[16] = Aeromonas hydrophila, 5×10^5 CFU/mL, 10 h cultivation at 37° C.
[17] = Citrobacter diversus, 5×10^5 CFU/mL, 10 h cultivation at 37° C.
[18] = Moraxella catarrhalis, 5×10^5 CFU/mL, 10 h cultivation at 37° C.
[19] = Proteus mirabilis, 5×10^5 CFU/mL, 10 h cultivation at 37° C.
[20] = Proteus vulgaris, 5×10^5 CFU/mL, 10 h cultivation at 37° C.
[21] = Serratia marcescens, 5×10^5 CFU/mL, 10 h cultivation at 37° C.
[22] = E. coli BL21, 96-well plate, 5×10^5 CFU/mL, 37° C., 10 h
[23] = Pseudomonas aeruginosa, 96-well plate, 5×10^5 CFU/mL, 37° C., 10 h
[24] = Klebsiella pneumonia, 96-well plate, 5×10^5 CFU/mL, 37° C., 10 h
[25] = Enterobacter cloacae, 96-well plate, 5×10^5 CFU/mL, 37° C., 10 h
[26] = Aeromonas hydrophila, 96-well plate, 5×10^5 CFU/mL, 37° C., 10 h
[27] = Citrobacter diversus, 96-well plate, 5×10^5 CFU/mL, 37° C., 10 h
[28] = Moraxella catarrhalis, 96-well plate, 5×10^5 CFU/mL, 37° C., 10 h
[29] = Proteus mirabilis, 96-well plate, 5×10^5 CFU/mL, 37° C., 10 h
[30] = Proteus vulgaris, 96-well plate, 5×10^5 CFU/mL, 37° C., 10 h
[31] = Serratia marcescens, 96-well plate, 5×10^5 CFU/mL, 37° C., 10 h
[32] = E. coli BL21, 10 h cultivation at 37° C., 5×10^5 CFU/mL
[33] = P. aeruginosa, 10 h cultivation at 37° C., 5×10^5 CFU/mL
[34] = K. pneumonia, 10 h cultivation at 37° C., 5×10^5 CFU/mL
[35] = E. cloacae, 10 h cultivation at 37° C., 5×10^5 CFU/mL
[36] = A. hydrophila, 10 h cultivation at 37° C., 5×10^5 CFU/mL
[37] = C. diversus, 10 h cultivation at 37° C., 5×10^5 CFU/mL
[38] = M. catarrhalis, 10 h cultivation at 37° C., 5×10^5 CFU/mL
[39] = P. mirabilis, 10 h cultivation at 37° C., 5×10^5 CFU/mL
[40] = P. vulgaris, 10 h cultivation at 37° C., 5×10^5 CFU/mL
[41] = S. marcescens, 10 h cultivation at 37° C., 5×10^5 CFU/mL
[42] = 10 h cultivation at 37° C., 5×10^5 CFU/mL, two-fold serial dilution
[43] = 96-well plate, 5×10^5 CFU/mL, 37° C., 10 h

PRT1442 (DKDECAKDNGGCQHECVNTFGSYLCRCRNGYWLHENGHDCK; listed as Homo sapiens)
50 µg/mL: MIC against K. pneumonia [4, 14] | MIC against M. catarrhalis [8, 18]
12.5 µg/mL: MIC [1] | MIC against E. coli BL21 [2, 12] | MIC against P. aeruginosa [3, 13] | MIC against E. cloacae [5, 15] | MIC against P. vulgaris [10, 20]
25 µg/mL: MIC against A. hydrophila [6, 16] | MIC against C. diversus [7, 17] | MIC against P. mirabilis [9, 19] | MIC against S. marcescens [11, 21]

PRT1405 (PTTQCIDPQCGGRGICIMGSCACNSGYKGESCE; listed as Homo sapiens)
50 µg/mL: MIC against P. vulgaris [10, 20]
12.5 µg/mL: MIC [1] | MIC against E. coli BL21 [2, 12] | MIC against P. aeruginosa [3, 13] | MIC against K. pneumonia [4, 14] | MIC against E. cloacae [5, 15] | MIC against A. hydrophila [6, 16] | MIC against C. diversus [7, 17] | MIC against M. catarrhalis [8, 18] | MIC against P. mirabilis [9, 19] | MIC against S. marcescens [11, 21]

PRT78 (KKNVCDSNTCHNGGTCVNQWDAFSCECPLGFGGKSCA; listed as Homo sapiens)
25 µg/mL: MIC (μg/mL) E. coli BL21 [2, 22] | MIC (μg/mL) K. pneumonia [4, 24] | MIC (μg/mL) A. hydrophila [6, 26]
50 µg/mL: MIC [1] | MIC (μg/mL) P. aeruginosa [3, 23] | MIC (μg/mL) E. cloacae [5, 25] | MIC (μg/mL) C. diversus [7, 27] | MIC (μg/mL) M. catarrhalis [8, 28] | MIC (μg/mL) P. mirabilis [9, 29] | MIC (μg/mL) P. vulgaris [10, 30]
12.5 µg/mL: MIC (μg/mL) S. marcescens [11, 31]

PRT835 (DVDECASSRGGCEHHCTNLAGSFQCSCEAGYRLHEDRRGCS; listed as Homo sapiens)
25 µg/mL: MIC [1] | MIC (μg/mL) P. aeruginosa [3, 33] | MIC (μg/mL) A. hydrophila [6, 36] | MIC (μg/mL) M. catarrhalis [8, 38] | MIC (μg/mL) S. marcescens [11, 41]
50 µg/mL: MIC (μg/mL) E. coli BL21 [2, 32] | MIC (μg/mL) E. cloacae [5, 35] | MIC (μg/mL) P. mirabilis [9, 39]
12.5 µg/mL: MIC (μg/mL) K. pneumonia [4, 34] | MIC (μg/mL) C. diversus [7, 37] | MIC (μg/mL) P. vulgaris [10, 40]

PRT1321 (AIDECELDMRGGCHTDALCSYVGPGQSRCTCKLGFAGDGYQCS; listed as Homo sapiens)
100 µg/mL: MIC against P. vulgaris [10, 30]
12.5 µg/mL: MIC against E. coli BL21 [2, 22] | MIC against E. cloacae [5, 25] | MIC against C. diversus [7, 27] | MIC against P. mirabilis [9, 29] | MIC against S. marcescens [11, 31]
50 µg/mL: MIC [1] | MIC against P. aeruginosa [3, 23] | MIC against A. hydrophila [6, 26] | MIC against M. catarrhalis [8, 28]
25 µg/mL: MIC against K. pneumonia [4, 24]

PRT831 (DGRHCVRRSPCANRNGSCMHRCQVVRGLARCECHVGYQLAADGKACE; listed as Homo sapiens)
50 µg/mL: MIC (μg/mL) C. diversus [7, 37] | MIC (μg/mL) P. mirabilis [9, 39]
25 µg/mL: MIC [1] | MIC (μg/mL) E. coli BL21 [2, 32] | MIC (μg/mL) K. pneumonia [4, 34] | MIC (μg/mL) A. hydrophila [6, 36] | MIC (μg/mL) P. vulgaris [10, 40]
12.5 µg/mL: MIC (μg/mL) P. aeruginosa [3, 33] | MIC (μg/mL) E. cloacae [5, 35] | MIC (μg/mL) M. catarrhalis [8, 38] | MIC (μg/mL) S. marcescens [11, 41]

PRT147 (DINECEINNGGCSVAPPVECVNTPGSSHCQACPPGYQGDGRVCT; listed as Homo sapiens)
25 µg/mL: MIC (μg/mL) P. vulgaris [10, 40]
12.5 µg/mL: MIC [1] | MIC (μg/mL) E. coli BL21 [2, 32] | MIC (μg/mL) P. aeruginosa [3, 33] | MIC (μg/mL) K. pneumonia [4, 34] | MIC (μg/mL) E. cloacae [5, 35] | MIC (μg/mL) A. hydrophila [6, 36] | MIC (μg/mL) C. diversus [7, 37] | MIC (μg/mL) M. catarrhalis [8, 38] | MIC (μg/mL) P. mirabilis [9, 39] | MIC (μg/mL) S. marcescens [11, 41]

PRT946 (EVDECQNQPCQNGGTCIDLVNHFKCSCPPGTRGLLCE; listed as Homo sapiens)
25 µg/mL: MIC ([6]; A. hydrophila, 10 h cultivation at 37° C.) | MIC ([9]; P. mirabilis, 10 h cultivation at 37° C.)
12.5 µg/mL: MIC ([2]; E. coli BL21, 10 h cultivation at 37° C.) | MIC ([4]; K. pneumonia, 10 h cultivation at 37° C.) | MIC ([7]; C. diversus, 10 h cultivation at 37° C.) | MIC ([10]; P. vulgaris, 10 h cultivation at 37° C.)
50 µg/mL: MIC [1] | MIC ([3]; P. aeruginosa, 10 h cultivation at 37° C.) | MIC ([5]; E. cloacae, 10 h cultivation at 37° C.) | MIC ([8]; M. catarrhalis, 10 h cultivation at 37° C.) | MIC ([11]; S. marcescens, 10 h cultivation at 37° C.)

PRT1045 (HGPGCQEHCLCLHGGVCQATSGLCQCAPGYTGPHCA; listed as Homo sapiens)
12.5 µg/mL: MIC E. cloacae [5, 42] | MIC P. mirabilis [9, 42]
25 µg/mL: MIC [1] | MIC P. aeruginosa [3, 42]
50 µg/mL: MIC E. coli BL21 [2, 42] | MIC K. pneumonia [4, 42] | MIC A. hydrophila [6, 42] | MIC C. diversus [7, 42] | MIC M. catarrhalis [8, 42] | MIC P. vulgaris [10, 42] | MIC S. marcescens [11, 42]

PRT848 (CQCNNRSASCDALTGACLNCQENSKGNHCEECKEGFYQSPDATKECLR; listed as Homo sapiens)
12.5 µg/mL: MIC (μg/mL) E. coli BL21 [2, 32] | MIC (μg/mL) A. hydrophila [6, 36] | MIC (μg/mL) M. catarrhalis [8, 38] | MIC (μg/mL) S. marcescens [11, 41]
50 µg/mL: MIC (μg/mL) E. cloacae [5, 35] | MIC (μg/mL) C. diversus [7, 37] | MIC (μg/mL) P. mirabilis [9, 39]
25 µg/mL: MIC [1] | MIC (μg/mL) P. aeruginosa [3, 33] | MIC (μg/mL) K. pneumonia [4, 34] | MIC (μg/mL) P. vulgaris [10, 40]

PRT427 (DVNECETGVHRCGEGQVCHNLPGSYRCDCKAGFQRDAFGRGCI; listed as Homo sapiens)
12.5 µg/mL: MIC [2, 32] | MIC [6, 36] | MIC [10, 40]
25 µg/mL: MIC [1] | MIC [3, 33] | MIC [5, 35] | MIC [7, 37] | MIC [9, 39] | MIC [11, 41]
50 µg/mL: MIC [4, 34] | MIC [8, 38]

PRT149 (LSNICLSHPCLNGQCIDTVSGYFCKCDSGWTGVNCT; listed as Homo sapiens)
12.5 µg/mL: MIC [1] | MIC (μg/mL) E. coli BL21 [2, 32] | MIC (μg/mL) P. aeruginosa [3, 33] | MIC (μg/mL) E. cloacae [5, 35] | MIC (μg/mL) C. diversus [7, 37] | MIC (μg/mL) P. mirabilis [9, 39] | MIC (μg/mL) P. vulgaris [10, 40] | MIC (μg/mL) S. marcescens [11, 41]
25 µg/mL: MIC (μg/mL) K. pneumonia [4, 34] | MIC (μg/mL) A. hydrophila [6, 36] | MIC (μg/mL) M. catarrhalis [8, 38]

PRT543 (CGCHEVGATGPTCEPFGGQCPCHAHVIGRDCSRCATGYWGFPNCRP; listed as Homo sapiens)
12.5 µg/mL: MIC [1] | MIC against P. aeruginosa [3, 43] | MIC against E. cloacae [5, 43] | MIC against M. catarrhalis [8, 43]
50 µg/mL: MIC against E. coli BL21 [2, 43] | MIC against K. pneumonia [4, 43] | MIC against A. hydrophila [6, 43] | MIC against P. vulgaris [10, 43]
25 µg/mL: MIC against C. diversus [7, 43] | MIC against P. mirabilis [9, 43] | MIC against S. marcescens [11, 43]
